Reference: ChEMBL document CHEMBL1201862, “PubChem BioAssay data set” (2004)
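Cultured in 96-well plates, cells were exposed to test compound for 48 hours across five concentrations. Abbreviation: GI50, concentration required for 50% inhibition of growth.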 The source made the active and inactive calls. Rule as the data show it: active = GI50 up to about 1.1 µM and inactive = higher.

Assays:
Test in all cases: NCI anticancer screen, dose series, 48 h
UO-31 = test system: UO-31
SNB-75 = test system: SNB-75
LOX IMVI = test system: LOX IMVI
TK-10 = test system: TK-10
DU-145 = test system: DU-145
NCI-H226 = test system: NCI-H226
SF-295 = test system: SF-295
NCI-H23 = test system: NCI-H23
OVCAR-3 = test system: OVCAR-3
OVCAR-5 = test system: OVCAR-5
COLO 205 = test system: COLO 205
OVCAR-8 = test system: OVCAR-8
MDA-MB-435 = test system: MDA-MB-435
HOP-62 = test system: HOP-62
RPMI-8226 = test system: RPMI-8226
MDA-MB-231 = test system: MDA-MB-231
NCI-H522 = test system: NCI-H522
786-0 = test system: 786-0
IGROV-1 = test system: IGROV-1
SF-539 = test system: SF-539

| SMILES | GI50 (UO-31) | GI50 (SNB-75) | GI50 (LOX IMVI) | GI50 (TK-10) | GI50 (DU-145) | GI50 (NCI-H226) | GI50 (SF-295) | GI50 (NCI-H23) | GI50 (OVCAR-3) | GI50 (OVCAR-5) | GI50 (COLO 205) | GI50 (OVCAR-8) | GI50 (MDA-MB-435) | GI50 (HOP-62) | GI50 (RPMI-8226) | GI50 (MDA-MB-231) | GI50 (NCI-H522) | GI50 (786-0) | GI50 (IGROV-1) | GI50 (SF-539) |
| --- | --- | --- | --- | --- | --- | --- | --- | --- | --- | --- | --- | --- | --- | --- | --- | --- | --- | --- | --- | --- |
| C=CC(C)(C)C(=C)C(=O)N(C)c1ccccc1I | > 100 µM (inactive) | > 100 µM (inactive) | > 100 µM (inactive) | > 100 µM (inactive) | > 100 µM (inactive) | 95.7 µM (inactive) | > 100 µM (inactive) | 84.1 µM (inactive) | > 100 µM (inactive) | > 100 µM (inactive) | > 100 µM (inactive) | > 100 µM (inactive) | > 100 µM (inactive) | > 100 µM (inactive) | > 100 µM (inactive) | > 100 µM (inactive) | > 100 µM (inactive) | > 100 µM (inactive) | – | – |
| CN(CCc1ccccn1)C(=S)N/N=C/c1ccccn1 | 0.139 µM (active) | 7.5 µM (inactive) | 0.07 µM (active) | 0.043 µM (active) | 0.298 µM (active) | 0.0516 µM (active) | 0.147 µM (active) | < 0.0275 µM (active) | < 0.01 µM (active) | 0.0238 µM (active) | < 0.01 µM (active) | 0.0308 µM (active) | 0.678 µM (active) | 0.0336 µM (active) | < 0.01 µM (active) | < 0.01 µM (active) | < 0.01 µM (active) | 0.0495 µM (active) | 0.0184 µM (active) | 0.0935 µM (active) |
| N#Cc1c(N)n(C2OC(CO)C(O)C2O)c2ncnc(N)c12 (centres undefined) | 0.0847 µM (active) | 0.0798 µM (active) | 0.0165 µM (active) | 0.0211 µM (active) | 0.112 µM (active) | 0.0684 µM (active) | 0.0711 µM (active) | 0.0292 µM (active) | 0.029 µM (active) | 0.0541 µM (active) | 0.0329 µM (active) | 0.014 µM (active) | 0.0212 µM (active) | 0.0335 µM (active) | 0.184 µM (active) | 0.0364 µM (active) | 0.135 µM (active) | 0.0671 µM (active) | 0.22 µM (active) | 0.118 µM (active) |
| O=C(C/N=C(\CN(c1ccccc1)c1ccccc1)Oc1c(Cl)cc(Cl)cc1Cl)N1c2ccccc2Sc2ccccc21 | – | 22.3 µM (inactive) | – | 43.9 µM (inactive) | > 100 µM (inactive) | 24.4 µM (inactive) | > 100 µM (inactive) | 40.2 µM (inactive) | 46.8 µM (inactive) | 30.4 µM (inactive) | 34.8 µM (inactive) | 35.4 µM (inactive) | 34.2 µM (inactive) | > 100 µM (inactive) | 62.2 µM (inactive) | > 100 µM (inactive) | 28.3 µM (inactive) | 55.3 µM (inactive) | 28.2 µM (inactive) | > 100 µM (inactive) |
| COc1ccc(C2OC2C(=O)C23CC4CC(CC(C4)C2)C3)cc1 (centres undefined) | > 100 µM (inactive) | > 10 µM (inactive) | 19.1 µM (inactive) | > 100 µM (inactive) | 90.8 µM (inactive) | > 100 µM (inactive) | 33.7 µM (inactive) | 76 µM (inactive) | > 100 µM (inactive) | > 100 µM (inactive) | – | 38.3 µM (inactive) | 48.6 µM (inactive) | 31.1 µM (inactive) | 25.2 µM (inactive) | 33 µM (inactive) | 45.5 µM (inactive) | 46.3 µM (inactive) | 71.1 µM (inactive) | > 100 µM (inactive) |
| CC1OC2OC3C(OCC(O)C3O)OC(=O)[C@]34CCC(C)(C)CC3C3=CCC5[C@@]6(C)C[C@H](O)[C@H](OC7OC(CO)C(O)C(O)C7OC7OC(COC(=O)CC(C)(O)CC(=O)OC1C(O)C2O)C(O)C(O)C7O)[C@@](C)(CO)C6CC[C@@]5(C)[C@]3(C)CC4 (some centres undefined) | 1.22 µM (inactive) | 1.47 µM (inactive) | 1.61 µM (inactive) | 1.61 µM (inactive) | 1.75 µM (inactive) | 2.48 µM (inactive) | 1.78 µM (inactive) | 1.64 µM (inactive) | 1.53 µM (inactive) | 1.61 µM (inactive) | 1.52 µM (inactive) | 1.65 µM (inactive) | 1.57 µM (inactive) | 1.44 µM (inactive) | 1.66 µM (inactive) | 1.56 µM (inactive) | 1.64 µM (inactive) | 1.21 µM (inactive) | 1.24 µM (inactive) | 2.56 µM (inactive) |
| COc1cc(C(c2cccc3ccccc23)N2C(=O)CCC2C(=O)O)cc(OC)c1OC (centres undefined) | > 100 µM (inactive) | > 100 µM (inactive) | – | – | > 100 µM (inactive) | > 100 µM (inactive) | > 100 µM (inactive) | > 100 µM (inactive) | > 100 µM (inactive) | > 100 µM (inactive) | > 100 µM (inactive) | > 100 µM (inactive) | > 100 µM (inactive) | > 100 µM (inactive) | > 100 µM (inactive) | > 100 µM (inactive) | > 100 µM (inactive) | > 100 µM (inactive) | > 100 µM (inactive) | > 100 µM (inactive) |
| Cc1cc(C)nc(NC(=O)COc2ccc(Cl)cc2)c1 | – | > 100 µM (inactive) | > 100 µM (inactive) | > 100 µM (inactive) | > 100 µM (inactive) | > 100 µM (inactive) | 84.9 µM (inactive) | > 100 µM (inactive) | > 100 µM (inactive) | > 100 µM (inactive) | > 100 µM (inactive) | > 100 µM (inactive) | > 100 µM (inactive) | > 100 µM (inactive) | 74.5 µM (inactive) | > 100 µM (inactive) | 84.5 µM (inactive) | > 100 µM (inactive) | 75.3 µM (inactive) | > 100 µM (inactive) |
| O=C1CSC2(CC(/C=C/c3ccccc3O)=NN2c2cccc(S(=O)(=O)O)c2)N1c1nc2ccccc2s1 (centres undefined) | 28.7 µM (inactive) | 90.8 µM (inactive) | 17.3 µM (inactive) | 20 µM (inactive) | 30.5 µM (inactive) | 22.2 µM (inactive) | – | 22.1 µM (inactive) | – | 26.9 µM (inactive) | 29.9 µM (inactive) | 17.9 µM (inactive) | 21.4 µM (inactive) | – | 16 µM (inactive) | 30.1 µM (inactive) | 15.7 µM (inactive) | 31.6 µM (inactive) | 23.3 µM (inactive) | 16.3 µM (inactive) |
| COc1ccc2c(c1O)-c1c(OC)c(OC)cc3c1[C@H](C2)[N+](C)(C)CC3 | > 100 µM (inactive) | > 100 µM (inactive) | > 100 µM (inactive) | > 100 µM (inactive) | > 100 µM (inactive) | > 100 µM (inactive) | > 100 µM (inactive) | > 100 µM (inactive) | > 100 µM (inactive) | > 100 µM (inactive) | > 100 µM (inactive) | > 100 µM (inactive) | > 100 µM (inactive) | – | > 100 µM (inactive) | > 100 µM (inactive) | > 100 µM (inactive) | > 100 µM (inactive) | > 100 µM (inactive) | > 100 µM (inactive) |
| COC(=O)C1C(O)C(C)C(=O)C(C)/C=C\C=C(C)C(=O)Nc2c(C)c(OC(C)=O)c3c(c2O)C(=O)C(C)=C2OCOC(=C23)C(C)=CC(C)(O)C(O)C(C)C1O (centres undefined) | 23.5 µM (inactive) | 49 µM (inactive) | 24.9 µM (inactive) | – | 15 µM (inactive) | 46.7 µM (inactive) | 62.2 µM (inactive) | 17.5 µM (inactive) | 42.4 µM (inactive) | 29 µM (inactive) | 25.1 µM (inactive) | 33.7 µM (inactive) | 39.2 µM (inactive) | > 100 µM (inactive) | > 100 µM (inactive) | > 100 µM (inactive) | 43.5 µM (inactive) | 54.6 µM (inactive) | 21.7 µM (inactive) | 47.4 µM (inactive) |
| COc1ccc(OC)c(/N=C/c2cc(OC)c(OC)c(OC)c2)c1 | > 100 µM (inactive) | > 100 µM (inactive) | > 100 µM (inactive) | > 100 µM (inactive) | > 100 µM (inactive) | > 50.2 µM (inactive) | > 100 µM (inactive) | > 100 µM (inactive) | – | > 100 µM (inactive) | > 100 µM (inactive) | > 100 µM (inactive) | 28 µM (inactive) | > 100 µM (inactive) | > 44.1 µM (inactive) | > 100 µM (inactive) | 22.9 µM (inactive) | > 95.7 µM (inactive) | > 82.8 µM (inactive) | > 100 µM (inactive) |
| CCN(CCCl)c1cc(CN(C)C)cc(NC(=O)C23CCC(C(=O)Nc4cc(CN(C)C)cc(N(CC)CCCl)c4)(CC2)CC3)c1 | 17.1 µM (inactive) | 1.01 µM (active) | 0.152 µM (active) | 8.49 µM (inactive) | 0.804 µM (active) | 1.4 µM (inactive) | 1.59 µM (inactive) | 0.424 µM (active) | – | 1.5 µM (inactive) | 1.49 µM (inactive) | 1.11 µM (active) | 1.39 µM (inactive) | 0.372 µM (active) | 1.35 µM (inactive) | 12.8 µM (inactive) | 0.202 µM (active) | 0.073 µM (active) | 1.44 µM (inactive) | 0.443 µM (active) |
| O=C(CC(=O)N1N=C(N(c2ccccc2)c2ccccc2)CC1c1ccccc1)Nc1cccc(Cl)c1 (centres undefined) | > 100 µM (inactive) | > 100 µM (inactive) | – | > 100 µM (inactive) | > 100 µM (inactive) | > 100 µM (inactive) | > 100 µM (inactive) | > 100 µM (inactive) | > 100 µM (inactive) | > 100 µM (inactive) | > 100 µM (inactive) | > 100 µM (inactive) | > 100 µM (inactive) | > 100 µM (inactive) | > 100 µM (inactive) | > 100 µM (inactive) | > 100 µM (inactive) | > 100 µM (inactive) | > 100 µM (inactive) | > 100 µM (inactive) |
